In patent US20090311344A1, “Dosing Regimen” (priority 2008, published 2009):

Assay: Multiple dose study in cancer subjects: treatment-emergent (serious) adverse events
Conditions: n of N = 12
Description: 46 subjects with cancer receiving platinum-based therapies were enrolled into 3 cohorts (N=16 in Cohort 1, 14 in Cohort 2, and 16 in Cohort 3). The subjects received the TPO mimetic peptide compound or placebo within 2 hours prior to the platinum-based chemotherapy on Day 1 of the first 2 cycles with a 21-day interval between each cycle. In addition to the Day 1 administration, gemcitabine administration was permitted on Day 8 of each cycle. Other chemotherapy medications were limited to dosing on Day 1 of each cycle only. Subjects were followed up for a total of 4 cycles of chemotherapy. Chemotherapy regimen continued beyond the first 4 cycles as per standard of care therapy. In the first cohort, 12 subjects received 1.5 μg/kg the TPO mimetic peptide compound and 4 subjects received placebo. In the second cohort 10 subjects received 3.0 μg/kg the TPO mimetic peptide compound and 4 subjects received placebo. In the third cohort, 12 subjects received 2.25 μg/kg the TPO mimetic peptide compound and 4 subjects received placebo. […] Therefore, a third cohort at a lower dose (2.25 μg/kg) was added to collect additional safety, tolerability, PD, and PK data.

Substance: Methoxypolyethyleneglycol20000-propionyl-L-Isoleucyl-L-Glutamyl-Glycyl-L-Prolyl-L-Threonyl-L-Leucyl-L-Arginyl-L-Glutaminyl-L-2-Naphthylalanyl-L-Leucyl-L-Alanyl-L-Alanyl-L-Arginyl-Sarcosyl-Ne-(methoxypolyethyleneglycol20000-propionyl-L-Isoleucyl-L-Glutamyl-Glycyl-L-Prolyl-L-Threonyl-L-Leucyl-L-Arginyl-L-Glutaminyl-L-2-Naphthylalanyl-L-Leucyl-L-Alanyl-L-Alanyl-L-Arginyl-Sarcosyl-)-Lysinamide [TPO mimetic peptide compound]
- Adverse event: Abdominal pain (1.5 ug/kg): 2
- Adverse event: Acute myocardial infarction (1.5 ug/kg): 1
- Adverse event: Alanine aminotransferase increased (1.5 ug/kg): 0
- Adverse event: Alopecia (1.5 ug/kg): 2
- Adverse event: Anemia (1.5 ug/kg): 7
- Adverse event: Anorexia (1.5 ug/kg): 5
- Adverse event: Anxiety (1.5 ug/kg): 1
- Adverse event: Arthralgia (1.5 ug/kg): 0
- Adverse event: Aspartate aminotransferase increased (1.5 ug/kg): 0
- Adverse event: Atrial fibrillation (1.5 ug/kg): 1
- Adverse event: Azotaemia (1.5 ug/kg): 0
- Adverse event: Blood and lymphatic system disorders (1.5 ug/kg): 8
- Adverse event: Blood creatinine increased (1.5 ug/kg): 1
- Adverse event: C-reactive protein increased (1.5 ug/kg): 0
- Adverse event: Cancer pain (1.5 ug/kg): 1
- Adverse event: Cardiac disorders (1.5 ug/kg): 3
- Adverse event: Cardiac failure (1.5 ug/kg): 1
- Adverse event: Chills (1.5 ug/kg): 0
- Adverse event: Confusional state (1.5 ug/kg): 0
- Adverse event: Constipation (1.5 ug/kg): 3
- Adverse event: Cough (1.5 ug/kg): 0
- Adverse event: Dehydration (1.5 ug/kg): 0
- Adverse event: Dermatitis acneiform (1.5 ug/kg): 0
- Adverse event: Diabetes mellitus non-insulin-dependent (1.5 ug/kg): 1
- Adverse event: Diarrhea (1.5 ug/kg): 2
- Adverse event: Dizziness (1.5 ug/kg): 0
- Adverse event: Dry skin (1.5 ug/kg): 0
- Adverse event: Dyspepsia (1.5 ug/kg): 0
- Adverse event: Dyspnoea (1.5 ug/kg): 1
- Adverse event: Ear and labyrinth disorders (1.5 ug/kg): 0
- Adverse event: Epistaxis (1.5 ug/kg): 0
- Adverse event: Eructation (1.5 ug/kg): 0
- Adverse event: Fatigue (1.5 ug/kg): 5
- Adverse event: Febrile neutropenia (1.5 ug/kg): 0
- Adverse event: Folliculitis (1.5 ug/kg): 1
- Adverse event: Gastrointestinal disorders (1.5 ug/kg): 7
- Adverse event: General disorders and administration site conditions (1.5 ug/kg): 7
- Adverse event: General physical health deterioration (1.5 ug/kg): 0
- Adverse event: Haematocrit decreased (1.5 ug/kg): 0
- Adverse event: Headache (1.5 ug/kg): 1
- Adverse event: Hemorrhoids (1.5 ug/kg): 1
- Adverse event: Hepatobiliary disorders (1.5 ug/kg): 0
- Adverse event: Hiccups (1.5 ug/kg): 1
- Adverse event: Hyperbilirubinaemia (1.5 ug/kg): 0
- Adverse event: Hypersensitivity (1.5 ug/kg): 0
- Adverse event: Hypertension (1.5 ug/kg): 0
- Adverse event: Hypoalbuminaemia (1.5 ug/kg): 0
- Adverse event: Hypocalcaemia (1.5 ug/kg): 1
- Adverse event: Hypokalaemia (1.5 ug/kg): 0
- Adverse event: Hypomagnesaemia (1.5 ug/kg): 0
- Adverse event: Hyponatraemia (1.5 ug/kg): 0
- Adverse event: Hypophosphataemia (1.5 ug/kg): 1
- Adverse event: Immune system disorders (1.5 ug/kg): 0
- Adverse event: Insomnia (1.5 ug/kg): 0
- Adverse event: Investigations (1.5 ug/kg): 3
- Adverse event: Leukocytosis (1.5 ug/kg): 0
- Adverse event: Leukopenia (1.5 ug/kg): 2
- Adverse event: Lung abscess (1.5 ug/kg): 1
- Adverse event: Lymphopenia (1.5 ug/kg): 2
- Adverse event: Metabolism and nutrition disorders (1.5 ug/kg): 5
- Adverse event: Mucosal inflammation (1.5 ug/kg): 0
- Adverse event: Musculoskeletal and connective tissue disorders (1.5 ug/kg): 0
- Adverse event: Nausea (1.5 ug/kg): 6
- Adverse event: Neoplasms benign, malignant and unspecified (incl cysts and polyps) (1.5 ug/kg): 1
- Adverse event: Nervous system disorders (1.5 ug/kg): 3
- Adverse event: Neuropathy peripheral (1.5 ug/kg): 1
- Adverse event: Neutropenia (1.5 ug/kg): 3
- Adverse event: Oedema (1.5 ug/kg): 0
- Adverse event: Oedema peripheral (1.5 ug/kg): 1
- Adverse event: Pain (1.5 ug/kg): 3
- Adverse event: Pain in extremity (1.5 ug/kg): 0
- Adverse event: Paraesthesia (1.5 ug/kg): 0
- Adverse event: Peripheral motor neuropathy (1.5 ug/kg): 1
- Adverse event: Peripheral sensory neuropathy (1.5 ug/kg): 0
- Adverse event: Platelet count decreased (1.5 ug/kg): 1
- Adverse event: Psychiatric disorders (1.5 ug/kg): 1
- Adverse event: Pyrexia (1.5 ug/kg): 1
- Adverse event: Rash (1.5 ug/kg): 2
- Adverse event: Renal and urinary disorders (1.5 ug/kg): 0
- Adverse event: Respiratory failure (1.5 ug/kg): 1
- Adverse event: Respiratory, thoracic and mediastinal disorders (1.5 ug/kg): 2
- Adverse event: Skin and subcutaneous tissue disorders (1.5 ug/kg): 4
- Adverse event: Stomatitis (1.5 ug/kg): 2
- Adverse event: Tachycardia (1.5 ug/kg): 2
- Adverse event: Thrombocythaemia (1.5 ug/kg): 1
- Adverse event: Thrombocytopenia (1.5 ug/kg): 3
- Adverse event: Tinnitus (1.5 ug/kg): 0
- Adverse event: Vascular disorders (1.5 ug/kg): 0
- Adverse event: Vomiting (1.5 ug/kg): 2
- Adverse event: Weight decreased (1.5 ug/kg): 1
- Serious adverse event: Abdominal pain (1.5 ug/kg): 1
- Serious adverse event: Acute myocardial infarction (1.5 ug/kg): 1
- Serious adverse event: Anorexia (1.5 ug/kg): 1
- Serious adverse event: Atrial fibrillation (1.5 ug/kg): 1
- Serious adverse event: Blood and lymphatic system disorders (1.5 ug/kg): 2
- Serious adverse event: Blood creatinine increased (1.5 ug/kg): 0
- Serious adverse event: Cardiac disorders (1.5 ug/kg): 2
- Serious adverse event: Cardiac failure (1.5 ug/kg): 1
- Serious adverse event: Dehydration (1.5 ug/kg): 0
- Serious adverse event: Dyspnoea (1.5 ug/kg): 0
- Serious adverse event: Fatigue (1.5 ug/kg): 1
- Serious adverse event: Febrile neutropenia (1.5 ug/kg): 0
- Serious adverse event: Gastrointestinal disorders (1.5 ug/kg): 2
- Serious adverse event: General disorders and administration site conditions (1.5 ug/kg): 2
- Serious adverse event: Hyponatraemia (1.5 ug/kg): 0
- Serious adverse event: Investigations (1.5 ug/kg): 0
- Serious adverse event: Lung abscess (1.5 ug/kg): 1
- Serious adverse event: Metabolism and nutrition disorders (1.5 ug/kg): 1
- Serious adverse event: Nausea (1.5 ug/kg): 1
- Serious adverse event: Neutropenia (1.5 ug/kg): 1
- Serious adverse event: Pain (1.5 ug/kg): 1
- Serious adverse event: Pyrexia (1.5 ug/kg): 1
- Serious adverse event: Respiratory failure (1.5 ug/kg): 1
- Serious adverse event: Respiratory, thoracic and mediastinal disorders (1.5 ug/kg): 1
- Serious adverse event: Thrombocythaemia (1.5 ug/kg): 1
- Serious adverse event: Thrombocytopenia (1.5 ug/kg): 0
- Serious adverse event: Vomiting (1.5 ug/kg): 0
- Total no. subjects WITH ADVERSE EVENTS (1.5 ug/kg): 12
- Total no. subjects WITH SERIOUS ADVERSE EVENTS (1.5 ug/kg): 5
- Adverse event: Abdominal pain (2.25 ug/kg): 1
- Adverse event: Acute myocardial infarction (2.25 ug/kg): 0
- Adverse event: Alanine aminotransferase increased (2.25 ug/kg): 0
- Adverse event: Alopecia (2.25 ug/kg): 3
- Adverse event: Anemia (2.25 ug/kg): 2
- Adverse event: Anorexia (2.25 ug/kg): 0
- Adverse event: Anxiety (2.25 ug/kg): 0
- Adverse event: Arthralgia (2.25 ug/kg): 0
- Adverse event: Aspartate aminotransferase increased (2.25 ug/kg): 0
- Adverse event: Atrial fibrillation (2.25 ug/kg): 0
- Adverse event: Azotaemia (2.25 ug/kg): 1
- Adverse event: Blood and lymphatic system disorders (2.25 ug/kg): 6
- Adverse event: Blood creatinine increased (2.25 ug/kg): 1
- Adverse event: C-reactive protein increased (2.25 ug/kg): 0
- Adverse event: Cancer pain (2.25 ug/kg): 0
- Adverse event: Cardiac disorders (2.25 ug/kg): 0
- Adverse event: Cardiac failure (2.25 ug/kg): 0
- Adverse event: Chills (2.25 ug/kg): 1
- Adverse event: Confusional state (2.25 ug/kg): 1
- Adverse event: Constipation (2.25 ug/kg): 2
- Adverse event: Cough (2.25 ug/kg): 2
- Adverse event: Dehydration (2.25 ug/kg): 1
- Adverse event: Dermatitis acneiform (2.25 ug/kg): 0
- Adverse event: Diabetes mellitus non-insulin-dependent (2.25 ug/kg): 0
- Adverse event: Diarrhea (2.25 ug/kg): 1
- Adverse event: Dizziness (2.25 ug/kg): 2
- Adverse event: Dry skin (2.25 ug/kg): 0
- Adverse event: Dyspepsia (2.25 ug/kg): 0
- Adverse event: Dyspnoea (2.25 ug/kg): 1
- Adverse event: Ear and labyrinth disorders (2.25 ug/kg): 0
- Adverse event: Epistaxis (2.25 ug/kg): 0
- Adverse event: Eructation (2.25 ug/kg): 1
- Adverse event: Fatigue (2.25 ug/kg): 1
- Adverse event: Febrile neutropenia (2.25 ug/kg): 1
- Adverse event: Folliculitis (2.25 ug/kg): 0
- Adverse event: Gastrointestinal disorders (2.25 ug/kg): 7
- Adverse event: General disorders and administration site conditions (2.25 ug/kg): 3
- Adverse event: General physical health deterioration (2.25 ug/kg): 1
- Adverse event: Haematocrit decreased (2.25 ug/kg): 1
- Adverse event: Headache (2.25 ug/kg): 1
- Adverse event: Hemorrhoids (2.25 ug/kg): 0
- Adverse event: Hepatobiliary disorders (2.25 ug/kg): 1
- Adverse event: Hiccups (2.25 ug/kg): 1
- Adverse event: Hyperbilirubinaemia (2.25 ug/kg): 1
- Adverse event: Hypersensitivity (2.25 ug/kg): 0
- Adverse event: Hypertension (2.25 ug/kg): 2
- Adverse event: Hypoalbuminaemia (2.25 ug/kg): 1
- Adverse event: Hypocalcaemia (2.25 ug/kg): 0
- Adverse event: Hypokalaemia (2.25 ug/kg): 1
- Adverse event: Hypomagnesaemia (2.25 ug/kg): 1
- Adverse event: Hyponatraemia (2.25 ug/kg): 2
- Adverse event: Hypophosphataemia (2.25 ug/kg): 0
- Adverse event: Immune system disorders (2.25 ug/kg): 0
- Adverse event: Insomnia (2.25 ug/kg): 1
- Adverse event: Investigations (2.25 ug/kg): 2
- Adverse event: Leukocytosis (2.25 ug/kg): 0
- Adverse event: Leukopenia (2.25 ug/kg): 3
- Adverse event: Lung abscess (2.25 ug/kg): 0
- Adverse event: Lymphopenia (2.25 ug/kg): 0
- Adverse event: Metabolism and nutrition disorders (2.25 ug/kg): 2
- Adverse event: Mucosal inflammation (2.25 ug/kg): 0
